Source: the NIST ThermoML archive (doi:10.1016/j.jct.2011.07.021)
Numbers after ± are expanded uncertainties.

Assays:
[1] = refractive index (Na D-line) (dimensionless); xn = mol fraction of the nth substance listed; conditions: 101 kPa, Liquid, Standard Abbe refractometry
[2] = relative permittivity at zero frequency (dimensionless); xn = mol fraction of the nth substance listed; conditions: 101 kPa, Liquid, Parallel plate capacitor

CCC(O)CO (configuration not stated) [1,2-butanediol] + C1COCCO1
Conditions	refractive index, 298.2 K	refractive index, 308.2 K	refractive index, 318.2 K	relative permittivity at zero frequency, 298.2 K	relative permittivity at zero frequency, 308.2 K	relative permittivity at zero frequency, 318.2 K
[1], x1 = 0.099	1.4212 ± 0.0004	1.416 ± 0.0004	1.4103 ± 0.0004	–	–	–
[1], x1 = 0.148	1.4221 ± 0.0004	1.4166 ± 0.0004	1.4115 ± 0.0004	–	–	–
[1], x1 = 0.197	1.4227 ± 0.0004	1.4173 ± 0.0004	1.4124 ± 0.0004	–	–	–
[1], x1 = 0.246	1.4236 ± 0.0004	1.4182 ± 0.0004	1.4133 ± 0.0004	–	–	–
[1], x1 = 0.299	1.4242 ± 0.0004	1.4189 ± 0.0004	1.4142 ± 0.0004	–	–	–
[1], x1 = 0.349	1.4253 ± 0.0004	1.42 ± 0.0004	1.415 ± 0.001	–	–	–
[1], x1 = 0.401	1.4259 ± 0.0004	1.4208 ± 0.0004	1.4162 ± 0.0004	–	–	–
[1], x1 = 0.448	1.4268 ± 0.0004	1.4218 ± 0.0004	1.4168 ± 0.0004	–	–	–
[1], x1 = 0.51	1.428 ± 0.0004	1.4231 ± 0.0004	1.4177 ± 0.0004	–	–	–
[1], x1 = 0.55	1.4287 ± 0.0005	1.4237 ± 0.0005	1.4191 ± 0.0005	–	–	–
[1], x1 = 0.611	1.4297 ± 0.0005	1.4248 ± 0.0005	1.4203 ± 0.0005	–	–	–
[1], x1 = 0.685	1.4311 ± 0.0005	1.4263 ± 0.0005	1.4218 ± 0.0005	–	–	–
[1], x1 = 0.788	1.433 ± 0.0005	1.4285 ± 0.0005	1.4236 ± 0.0005	–	–	–
[1], x1 = 0.855	1.4341 ± 0.0005	1.4295 ± 0.0005	1.4253 ± 0.0005	–	–	–
[1], x1 = 0.907	1.4353 ± 0.0005	1.4307 ± 0.0005	1.4265 ± 0.0005	–	–	–
[1], x1 = 0.96	1.436 ± 0.0005	1.432 ± 0.0005	1.4278 ± 0.0005	–	–	–
[1], x1 = 1	1.4372 ± 0.0005	1.433 ± 0.0005	1.4288 ± 0.0005	–	–	–
[2], x1 = 0.099	–	–	–	3.127 ± 0.022	3.015 ± 0.02	2.92 ± 0.019
[2], x1 = 0.148	–	–	–	3.659 ± 0.025	3.496 ± 0.024	3.359 ± 0.022
[2], x1 = 0.197	–	–	–	4.254 ± 0.027	4.064 ± 0.026	3.875 ± 0.024
[2], x1 = 0.246	–	–	–	4.882 ± 0.03	4.632 ± 0.029	4.406 ± 0.025
[2], x1 = 0.299	–	–	–	5.685 ± 0.033	5.407 ± 0.031	5.046 ± 0.028
[2], x1 = 0.349	–	–	–	6.472 ± 0.036	6.079 ± 0.031	5.696 ± 0.03
[2], x1 = 0.401	–	–	–	7.376 ± 0.039	6.854 ± 0.036	6.419 ± 0.033
[2], x1 = 0.448	–	–	–	8.243 ± 0.041	7.732 ± 0.039	7.193 ± 0.035
[2], x1 = 0.51	–	–	–	9.466 ± 0.043	8.817 ± 0.04	8.122 ± 0.035
[2], x1 = 0.55	–	–	–	10.263 ± 0.047	9.592 ± 0.044	8.783 ± 0.04
[2], x1 = 0.611	–	–	–	11.646 ± 0.05	10.84 ± 0.046	9.908 ± 0.043
[2], x1 = 0.685	–	–	–	13.401 ± 0.054	12.41 ± 0.05	11.301 ± 0.047
[2], x1 = 0.788	–	–	–	16.007 ± 0.058	14.739 ± 0.054	13.469 ± 0.051
[2], x1 = 0.855	–	–	–	17.761 ± 0.063	16.335 ± 0.058	15.027 ± 0.055
[2], x1 = 0.907	–	–	–	19.272 ± 0.067	17.748 ± 0.063	16.307 ± 0.058
[2], x1 = 0.96	–	–	–	20.867 ± 0.071	19.214 ± 0.066	17.628 ± 0.06
[2], x1 = 1	–	–	–	22.143 ± 0.037	20.365 ± 0.036	18.661 ± 0.036

CCCCC(CC)CO (configuration not stated) [2-ethyl-1-hexanol] + CCC(O)CO
Conditions	refractive index, 298.2 K	refractive index, 308.2 K	refractive index, 318.2 K	relative permittivity at zero frequency, 298.2 K	relative permittivity at zero frequency, 308.2 K	relative permittivity at zero frequency, 318.2 K
[1], x2 = 0	1.4293 ± 0.0004	1.4252 ± 0.0004	1.4213 ± 0.0004	–	–	–
[1], x2 = 0.111	1.4295 ± 0.0004	1.4254 ± 0.0004	1.4215 ± 0.0004	–	–	–
[1], x2 = 0.199	1.4295 ± 0.0004	1.4257 ± 0.0004	1.4219 ± 0.0004	–	–	–
[1], x2 = 0.291	1.4299 ± 0.0004	1.4259 ± 0.0004	1.4222 ± 0.0004	–	–	–
[1], x2 = 0.345	1.4301 ± 0.0004	1.4261 ± 0.0004	1.4225 ± 0.0004	–	–	–
[1], x2 = 0.399	1.4303 ± 0.0004	1.4265 ± 0.0004	1.4228 ± 0.0004	–	–	–
[1], x2 = 0.448	1.4307 ± 0.0004	1.4269 ± 0.0004	1.423 ± 0.0004	–	–	–
[1], x2 = 0.501	1.431 ± 0.001	1.4272 ± 0.0004	1.4234 ± 0.0004	–	–	–
[1], x2 = 0.563	1.4313 ± 0.0004	1.4275 ± 0.0004	1.4237 ± 0.0004	–	–	–
[1], x2 = 0.625	1.432 ± 0.001	1.4281 ± 0.0005	1.4241 ± 0.0005	–	–	–
[1], x2 = 0.667	1.4323 ± 0.0005	1.4284 ± 0.0005	1.4245 ± 0.0005	–	–	–
[1], x2 = 0.702	1.4327 ± 0.0005	1.4289 ± 0.0005	1.4249 ± 0.0005	–	–	–
[1], x2 = 0.75	1.4335 ± 0.0005	1.4295 ± 0.0005	1.4253 ± 0.0005	–	–	–
[1], x2 = 0.814	1.4342 ± 0.0005	1.4303 ± 0.0005	1.4259 ± 0.0005	–	–	–
[1], x2 = 0.897	1.4354 ± 0.0005	1.4314 ± 0.0005	1.427 ± 0.0005	–	–	–
[2], x2 = 0	–	–	–	7.353 ± 0.022	6.362 ± 0.021	5.52 ± 0.02
[2], x2 = 0.111	–	–	–	7.683 ± 0.021	6.922 ± 0.021	6.232 ± 0.021
[2], x2 = 0.199	–	–	–	8.152 ± 0.022	7.52 ± 0.023	6.851 ± 0.022
[2], x2 = 0.291	–	–	–	8.91 ± 0.02	8.32 ± 0.024	7.636 ± 0.024
[2], x2 = 0.345	–	–	–	9.464 ± 0.027	8.8 ± 0.027	8.14 ± 0.026
[2], x2 = 0.399	–	–	–	10.065 ± 0.029	9.44 ± 0.029	8.701 ± 0.029
[2], x2 = 0.448	–	–	–	10.678 ± 0.031	9.995 ± 0.03	9.312 ± 0.03
[2], x2 = 0.501	–	–	–	11.404 ± 0.035	10.69 ± 0.032	9.954 ± 0.032
[2], x2 = 0.563	–	–	–	12.382 ± 0.038	11.556 ± 0.036	10.873 ± 0.034
[2], x2 = 0.625	–	–	–	13.435 ± 0.04	12.625 ± 0.039	11.819 ± 0.037
[2], x2 = 0.667	–	–	–	14.198 ± 0.044	13.357 ± 0.041	12.559 ± 0.041
[2], x2 = 0.702	–	–	–	14.955 ± 0.045	14.023 ± 0.044	13.21 ± 0.04
[2], x2 = 0.75	–	–	–	15.885 ± 0.05	15.005 ± 0.047	14.022 ± 0.044
[2], x2 = 0.814	–	–	–	17.454 ± 0.054	16.338 ± 0.048	15.347 ± 0.046
[2], x2 = 0.897	–	–	–	19.447 ± 0.059	18.115 ± 0.051	16.989 ± 0.044
